The record followed here is patent US9394520B2, “Expansion of hematopoietic stem cells” (University of Rochester, priority 2006, dated 2016).

“Also recorded” adds a separate entry of the source.

The test system of assay [1] is Jagged1. Description: Jagged1 protein by Western blot in UMR106 cells. The class given is cell-based. Conditions: UMR106 cells, PKI 200 μg/ml pre-treatment, then PGE2 10^−7 M. How it is done:
UMR 106 cells were serum starved for 24 hours and then treated with a single dose of vehicle (controls) or PGE2 at a concentration of 10^-7 M. RNA was collected from both control and treated samples to assess the fold change in Jagged1 mRNA by real time RT-PCR analysis corrected for by beta-actin. FIG. 1B is a Western blot showing total protein that was collected from both control and treated samples exposed to Jagged1 antibody, C20. Positive control (+ctr) was provided by HS27a cells, a human stromal cell line with high levels of Jagged1 protein, while HS5 cells from a human stromal cell line with minimal Jagged1 levels were used as a negative control. FIG. 2A is a graph showing that inhibition of PKA blocks PGE2-dependent increase of Jagged1 in UMR 106 cells. UMR106 cells were serum starved for 24 hours. They were pre-treated with H89 for 30 minutes followed by a single dose of PGE2 at 10^-7 M or vehicle. RNA was collected from both control and treated samples to assess the fold change in Jagged1 RNA by real time RT-PCR analysis corrected for by β-actin. […] UMR106 cells were serum starved for 24 hours. […] Total RNA was extracted and analyzed by real time RT-PCR, normalizing for β-actin expression and t=0. Total protein was analyzed by Western blots performed using the […] system (Invitrogen, Carlsbad, Calif.). […]

The subject of assay [2] is Jagged1. The experiment in a line: Jagged1 mRNA by real time RT-PCR in UMR106 cells. Format: cell-based. How it is done:
UMR 106 cells were serum starved for 24 hours and then treated with a single dose of vehicle (controls) or PGE2 at a concentration of 10^-7 M. RNA was collected from both control and treated samples to assess the fold change in Jagged1 mRNA by real time RT-PCR analysis corrected for by beta-actin. FIG. 1B is a Western blot showing total protein that was collected from both control and treated samples exposed to Jagged1 antibody, C20. Positive control (+ctr) was provided by HS27a cells, a human stromal cell line with high levels of Jagged1 protein, while HS5 cells from a human stromal cell line with minimal Jagged1 levels were used as a negative control. […] UMR106 cells were serum starved for 24 hours. They were pre-treated with H89 for 30 minutes followed by a single dose of PGE2 at 10^-7 M or vehicle. RNA was collected from both control and treated samples to assess the fold change in Jagged1 RNA by real time RT-PCR analysis corrected for by β-actin. […] UMR106 cells were serum starved for 24 hours. […] Total protein was collected from both PGE2 and vehicle treated samples for Western blot analysis with Jagged1 antibody C-20. UMR106 cells were grown in DMEM supplemented with 1.5 g/l sodium bicarbonate, 10% FBS, penicillin (100 U/ml), streptomycin (100 U/ml). After three days of growth the cells were 80% confluent and media was replaced with serum-free media. After 24 hr in serum-free media, PGE2 was added in noted concentrations. UMR 106 cells were treated with the Protein Kinase A (PKA) inhibitors H89 (0.5 hr prior to PGE2 treatment), and myristoylated PKI (0.5 hr prior to PGE2 treatment). […] At the designated times, total RNA and protein were harvested. Total RNA was extracted and analyzed by real time RT-PCR, normalizing for β-actin expression and t=0. Total protein was analyzed by Western blots performed using the […] system (Invitrogen, Carlsbad, Calif.). Blots were probed with Jag1 c-20 antibody (Santa Cruz Biotechnology, Inc., Santa Cruz, Calif.), and the loading control was B-actin.

Regarding “myristoylated PKA Inhibitory Peptide (14-22) [PKI]”, the “PGE2-dependent Jagged1 protein increase in presence of PKA inhibitor” value in assay [1] was “blocked; also recorded: inhibited”. As for `CCCC(=O)Nc1ncnc2c1ncn2[C@@H]1O[C@@H]2COP(=O)(O)O[C@H]2[C@H]1OC(=O)CCC` [dibutyryl-cAMP, n6 2′-0-dibutyryladenosine-3′, 5′-cyclic monophpsphate], the “Jagged1 increase by cAMP analogs that activate PKA” value in assay [2] (UMR106 cells) is recorded as “sufficient to increase Jagged1”. In the case of `O=S(=O)(NCCNC/C=C/c1ccc(Br)cc1)c1cccc2cnccc12` [H89], the “PGE2-dependent Jagged1 mRNA increase in presence of PKA inhibitor” value in assay [2] (UMR106 cells, H89 pre-treatment 30 minutes, then PGE2 10^−7 M) is “blocked; also recorded: inhibited”. As to `CCCC1([C@H](O)C/C=C/[C@H]2[C@H](O)CC(=O)[C@@H]2CCCCCCC(=O)OC)CCC1` [Butaprost, butaprost], the “PGE2-induced Jagged1 expression” value in assay [2] (UMR 106 cells, butaprost 10 μM) is recorded as “inhibited”. In the case of `O=C(O)CC/C=C\CC[C@H]1[C@H](N2CCOCC2)C(=O)C[C@H]1OCc1ccc(-c2ccccc2)cc1` [AH23848], the “PGE2-induced expression of Jagged1” value in assay [2] (osteoblastic cells pretreated 30 minutes with 30 μM AH23848, then PGE2) is on record as “did not inhibit”.
